# Laboratory results from patent publication US20140221499A1, “NOVEL RODENT CONTROL AGENTS AND USES THEREOF” (priority 2011, published 2014).
# Target: T1, mTAAR7f (Mus musculus, UniProt Q5QD08)
# T1 sequence (Q5QD08 1-358): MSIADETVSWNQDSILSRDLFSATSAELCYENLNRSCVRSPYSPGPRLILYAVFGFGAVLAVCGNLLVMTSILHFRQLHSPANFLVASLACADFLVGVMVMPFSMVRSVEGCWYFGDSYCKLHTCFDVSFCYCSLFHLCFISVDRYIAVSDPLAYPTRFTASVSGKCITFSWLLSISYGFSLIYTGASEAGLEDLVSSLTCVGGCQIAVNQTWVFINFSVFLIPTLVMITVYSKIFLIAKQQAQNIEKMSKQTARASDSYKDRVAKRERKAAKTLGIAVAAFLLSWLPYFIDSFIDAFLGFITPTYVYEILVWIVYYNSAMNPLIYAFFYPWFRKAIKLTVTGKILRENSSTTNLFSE
# Test: CRE-SEAP reporter gene assay in HEK293 cells transfected with mTAAR7f
# Type: cell-based
# Set-up: Full Taar coding regions were cloned into pcDNA3.1; expressed in transfected cells; host or cells: HEK293
# Conditions: FIG. 11B, not the mutant mTAAR7f-SS, functional with or without 'Rho tag', EC50 ± s.e.m., 4-parameter Hill equation
# Method: FIG. 11 illustrates the dose-dependent responses of TAARs to amines. HEK293 cells were cotransfected with plasmids encoding CRE-SEAP and rTAARs (a) or mTAARs (b), incubated with concentrations of ligands indicated, and assayed for reporter activity (triplicates±s.d.). EC50 values (±s.e.m, bottom right) were calculated using SigmaPlot (Systat Software) and a 4-parameter Hill equation.
# Chemicals tested for the ability to activate mouse TAARs include those previously described (Liberles, S. D., and Buck, L. B. (2006) A second class of chemosensory receptors in the olfactory epithelium, Nature 442, 645-650), as well as the following mixes (5 μM of each indicated compounds). Mix 1: N,N-dimethyl-cyclohexylamine, N,N-dimethyl-phenylethylamine, creatinine, taurine. […]
# Full Taar coding regions were cloned into pcDNA3.1-(Invitrogen) with or without a 5′ DNA extension of 69 bp encoding the first 20 amino acids of bovine rhodopsin followed by a cloning linker ([…]). […] Fluorescence was measured on an EnVision plate reader (Perkin Elmer) and SEAP activity graphed as relative fluorescence of a phosphatase substrate.
# Here, we set out to identify agonists for additional mouse and rat TAARs. […] Transfected cells were incubated with test chemicals, and phosphatase activity was quantified with a fluorescent substrate as a reporter for TAAR activation. […]
smiles,measurement,value
"CN(C)C1CCCCC1 [N,N-DIMETHYLCYCLOHEXYLAMINE, N,N-dimethylcyclohexylamine]",EC50,440 ± 130 nM
